According to ChEMBL document CHEMBL4043250 (Bioorg Med Chem Lett, 2017):

What was measured:
[1] = tested on: L02; assay: (§1) Anti-proliferative activity against human L02 cells after 48 hrs by MTT assay; type: ADME, cell-based; parameters: inhibition at 48 h: concentration or dose not given beside the values; conditions: Homo sapiens, L02, 48 h
[2] = tested on: AGS; assay: Anti-proliferative activity against human AGS cells after 48 hrs by MTT assay; type: functional, cell-based
[3] = tested on: AGS; assay: Growth inhibition of human AGS cells at 100 uM after 48 hrs by MTT assay relative to control; type: functional; conditions: read-out: GI
[4] = Selectivity index, ratio of IC50 for human L02 cells to IC50 for human AGS cells; type: functional
[5] = as §1; type: ADME, cell-based; parameters: inhibition at 48 h: concentration or dose not given beside the values; conditions: human, L02 cells
[6] = tested on: AGS; assay: Cell cycle arrest in human AGS cells assessed as accumulation at S phase at 0.1 uM after 48 hrs by propidium iodide staining based flow cytometry (reference value: 6.57%); type: functional
[7] = tested on: AGS; assay: Induction of apoptosis in human AGS cells assessed as necrotic cells at 10 uM after 48 hrs by Annexin-V-FITC/propidium iodide staining based flow cytometry (reference value: 2%); type: functional
[8] = tested on: AGS; assay: Induction of apoptosis in human AGS cells assessed as late apoptotic cells at 10 uM after 48 hrs by Annexin-V-FITC/propidium iodide staining based flow cytometry (reference value: 0.3%); type: functional
[9] = tested on: AGS; assay: Induction of apoptosis in human AGS cells assessed as viable cells at 10 uM after 48 hrs by Annexin-V-FITC/propidium iodide staining based flow cytometry (reference value: 97.5%); type: functional; conditions: read-out: Activity
[10] = tested on: AGS; assay: Cell cycle arrest in human AGS cells assessed as accumulation at S phase at 10 uM after 48 hrs by propidium iodide staining based flow cytometry (reference value: 6.57%); type: functional
[11] = tested on: AGS; assay: Induction of apoptosis in human AGS cells assessed as late apoptotic cells at 0.1 uM after 48 hrs by Annexin-V-FITC/propidium iodide staining based flow cytometry (reference value: 0.3%); type: functional
[12] = tested on: AGS; assay: Cell cycle arrest in human AGS cells assessed as accumulation at G2 phase at 10 uM after 48 hrs by propidium iodide staining based flow cytometry (reference value: 16.41%); type: functional
[13] = tested on: AGS; assay: Induction of apoptosis in human AGS cells assessed as viable cells at 0.1 uM after 48 hrs by Annexin-V-FITC/propidium iodide staining based flow cytometry (reference value: 97.5%); type: functional; conditions: read-out: Activity
[14] = tested on: AGS; assay: Induction of apoptosis in human AGS cells assessed as necrotic cells at 0.1 uM after 48 hrs by Annexin-V-FITC/propidium iodide staining based flow cytometry (reference value: 2%); type: functional
[15] = tested on: AGS; assay: Cell cycle arrest in human AGS cells assessed as accumulation at G1 phase at 10 uM after 48 hrs by propidium iodide staining based flow cytometry (reference value: 77.02%); type: functional
[16] = tested on: AGS; assay: Cell cycle arrest in human AGS cells assessed as accumulation at G1 phase at 0.1 uM after 48 hrs by propidium iodide staining based flow cytometry (reference value: 77.02%); type: functional
[17] = tested on: AGS; assay: Induction of apoptosis in human AGS cells assessed as early apoptotic cells at 10 uM after 48 hrs by Annexin-V-FITC/propidium iodide staining based flow cytometry (reference value: 0.2%); type: functional
[18] = tested on: AGS; assay: Induction of apoptosis in human AGS cells assessed as early apoptotic cells at 0.1 uM after 48 hrs by Annexin-V-FITC/propidium iodide staining based flow cytometry (reference value: 0.2%); type: functional
[19] = tested on: AGS; assay: Cell cycle arrest in human AGS cells assessed as accumulation at G2 phase at 0.1 uM after 48 hrs by propidium iodide staining based flow cytometry (reference value: 16.41%); type: functional

SMILES | IC50 [1] [µM] | IC50 [2] [µM] | inhibition of growth at 100 µM [3] [%] | Ratio IC50 [4] | other results
COc1ccc(-n2cc(COc3c4occc4cc4ccc(=O)oc34)nn2)cc1 | > 100 | 94.6 | 53.2 | >1.1 | 
O=c1ccc2cc3ccoc3c(OCc3cn(-c4ccccc4)nn3)c2o1 |  |  | 46.4 |  | 
O=c1ccc2cc3ccoc3c(OCc3nncn3-c3ccc(F)cc3)c2o1 | 94.2 | 13.1 | 72.3 | 7.2 | inhibition at 48 h [5]: 53.1%
O=c1ccc2cc3ccoc3c(OCc3cn(Cc4ccc(Cl)cc4)nn3)c2o1 | > 100 | 93.2 | 53.2 | >1.1 | 
Cc1cn(-c2ccc(C(F)(F)F)cc2)nn1 | > 100 | > 100 | 44.5 |  | inhibition at 48 h [5]: 9.4%
O=c1ccc2cc3ccoc3c(OCc3cn(Cc4ccc(F)cc4)nn3)c2o1 |  |  | 43.1 |  | 
O=c1ccc2cc3ccoc3c(OCc3nncn3-c3ccc(C(F)(F)F)cc3)c2o1 | > 100 | 41 | 52.9 | >2.4 | 
O=c1ccc2cc3ccoc3c(OCc3cn(Cc4ccccc4)nn3)c2o1 |  |  | 24.4 |  | 
O=c1ccc2cc3ccoc3c(OCc3cn(Cc4cccc(Cl)c4)nn3)c2o1 |  |  | 49.5 |  | 
O=c1ccc2cc3ccoc3c(OCc3nncn3-c3ccc(Cl)cc3)c2o1 |  |  | 40.3 |  | 
Cc1nncn1-c1ccc(F)cc1 | > 100 | > 100 | 13.9 |  | inhibition at 48 h [5]: 16.9%
COc1ccc(-n2cnnc2COc2c3occc3cc3ccc(=O)oc23)cc1 |  |  | 34.4 |  | 
O=c1ccc2cc3ccoc3c(OCc3cn(-c4ccc(Cl)cc4)nn3)c2o1 | > 100 | 8.2 | 89.6 | >12.2 | 
O=c1ccc2cc3ccoc3c(OCc3cn(-c4ccc(C(F)(F)F)cc4)nn3)c2o1 | > 100 | 7.5 | 92.4 | >13.3 | inhibition at 48 h [5]: 33.9%; Activity [6]: 7.17%; Activity [7]: 1.7%; Activity [8]: 1%; viability at 10 µM [9]: 96.4%; Activity [10]: 12.08%; Activity [11]: 0.8%; Activity [12]: 38.17%; viability at 0.1 µM [13]: 96.2%; Activity [14]: 1.8%; Activity [15]: 49.76%; Activity [16]: 61.1%; Activity [17]: 0.9%; Activity [18]: 0.3%; Activity [19]: 31.73%
O=c1ccc2cc3ccoc3c(OCc3cn(Cc4ccc(Cl)cc4Cl)nn3)c2o1 | 90.2 | 26.5 | 67.7 | 3.4 | 
Cc1ccc(-n2cnnc2COc2c3occc3cc3ccc(=O)oc23)cc1 |  |  | 39.4 |  | 
O=c1[nH]cc(F)c(=O)[nH]1 [FLUOROURACIL] |  | 29.6 | 74.9 |  | 
O=c1ccc2cc3ccoc3c(OCc3cn(Cc4cccc(F)c4)nn3)c2o1 |  |  | 30.1 |  | 
O=c1ccc2cc3ccoc3c(OCc3cn(-c4ccccc4F)nn3)c2o1 |  |  | 39.6 |  | 
Cc1ccc(-n2cc(COc3c4occc4cc4ccc(=O)oc34)nn2)cc1 | > 100 | 33.2 | 65.6 | >3 | 
COc1c2occc2cc2ccc(=O)oc12 [METHOXSALEN] | > 100 | > 100 | 35.3 |  | inhibition at 48 h [5]: 3.3%
O=c1ccc2cc3ccoc3c(OCc3cn(Cc4cccc(C(F)(F)F)c4)nn3)c2o1 | > 100 | > 100 | 51.7 |  | 
Cc1ccc(Cn2cc(COc3c4occc4cc4ccc(=O)oc34)nn2)cc1 |  |  | 47 |  | 
O=c1ccc2cc3ccoc3c(OCc3cn(Cc4c(Cl)cccc4Cl)nn3)c2o1 |  |  | 32.5 |  | 
O=c1ccc2cc3ccoc3c(OCc3cn(Cc4ccccc4F)nn3)c2o1 |  |  | 25.5 |  | 
O=c1ccc2cc3ccoc3c(OCc3cn(-c4ccc(F)cc4)nn3)c2o1 | > 100 | 10.7 | 70.4 | >9.3 | 
O=c1ccc2cc3ccoc3c(OCc3nncn3-c3ccccc3Cl)c2o1 |  |  | 45.2 |  | 
O=c1ccc2cc3ccoc3c(OCc3cn(Cc4ccccc4Cl)nn3)c2o1 |  |  | 33.2 |  | 
O=c1ccc2cc3ccoc3c(OCc3nncn3-c3ccccc3)c2o1 |  |  | 40.1 |  | 
